Test results from ChEMBL document CHEMBL2146470, “Novel Carboxamide-Based Allosteric MEK Inhibitors: Discovery and Optimization Efforts toward XL518 (GDC-0973)” (ACS Med Chem Lett, 2012).

Key:
[1] = target: Dual specificity mitogen-activated protein kinase kinase 1 (Homo sapiens, UniProt Q02750)
Description: Inhibition of MEK1-mediated ERK2 T202/Y204 phosphorylation using biotinylated MBP as substrate preincubated for 30 mins measured after 100 mins by cRAF-MEK-ERK enzyme coupled assay

[2] = target: Dual specificity mitogen-activated protein kinase kinase; MEK1/2 (Homo sapiens, UniProt P36507+Q02750)
Description: Inhibition of MEK-mediated ERK T202/Y204 phosphorylation in human MDA-MB-231T cells after 1 hr by immunoblotting

Rattus norvegicus = experiment: Dose normalised AUC (0 to t) in Sprague-Dawley rat at 5 mg/kg, po; assay type: ADME, organism-based; parameters: dose 5 mg/kg, route oral; conditions: in vivo
[3] = Drug metabolism in rat liver microsomes at 15 uM after 30 mins; assay type: ADME, Microsome; conditions: read-out: Drug metabolism
[4] = Drug metabolism in human liver microsomes at 15 uM after 30 mins; assay type: ADME, Microsome; conditions: read-out: Drug metabolism
[5] = Clearance in Sprague-Dawley rat at 5 mg/kg, po; assay type: ADME, organism-based; parameters: dose 5 mg/kg, route oral; conditions: in vivo
[6] = Half life in Sprague-Dawley rat at 5 mg/kg, po; assay type: ADME, organism-based; parameters: dose 5 mg/kg, route oral; conditions: in vivo
[7] = Apparent permeability across MDCK cells; assay type: ADME, cell-based, Canis lupus familiaris; conditions: dog
[8] = Oral bioavailability in Sprague-Dawley rat at 5 mg/kg; assay type: ADME, organism-based; conditions: in vivo
Brain [9] = experiment: Drug metabolism in brain of nude NCr mouse xenografted with human MDA-MB-231T cells assessed as 3,4-difluoro-2-(2-fluoro-4-iodophenylamino)benzoic acid level at 30 mg/kg, po measured after 24 hrs by LC-MS analysis; assay type: ADME, organism-based; parameters: dose 30 mg/kg, route oral; conditions: in vivo
Plasma [10] = experiment: Drug metabolism in plasma of nude NCr mouse xenografted with human MDA-MB-231T cells assessed as 3,4-difluoro-2-(2-fluoro-4-iodophenylamino)benzoic acid level at 30 mg/kg, po measured after 24 hrs by LC-MS analysis; assay type: ADME, organism-based; parameters: dose 30 mg/kg, route oral; conditions: in vivo
[11] = Drug metabolism in tumor of nude NCr mouse xenografted with human MDA-MB-231T cells assessed as 3,4-difluoro-2-(2-fluoro-4-iodophenylamino)benzoic acid level at 30 mg/kg, po measured after 2 hrs by LC-MS analysis; assay type: ADME, organism-based, Neoplasm; parameters: dose 30 mg/kg, route oral; conditions: in vivo
Plasma [12] = experiment: Drug metabolism in plasma of nude NCr mouse xenografted with human MDA-MB-231T cells assessed as 3,4-difluoro-2-(2-fluoro-4-iodophenylamino)benzoic acid level at 30 mg/kg, po measured after 2 hrs by LC-MS analysis; assay type: ADME, organism-based; parameters: dose 30 mg/kg, route oral; conditions: in vivo
Brain [13] = experiment: Drug metabolism in brain of nude NCr mouse xenografted with human MDA-MB-231T cells assessed as 3,4-difluoro-2-(2-fluoro-4-iodophenylamino)benzoic acid level at 30 mg/kg, po measured after 2 hrs by LC-MS analysis; assay type: ADME, organism-based; parameters: dose 30 mg/kg, route oral; conditions: in vivo
[14] = Drug metabolism in tumor of nude NCr mouse xenografted with human MDA-MB-231T cells assessed as 3,4-difluoro-2-(2-fluoro-4-iodophenylamino)benzoic acid level at 30 mg/kg, po measured after 24 hrs by LC-MS analysis; assay type: ADME, organism-based, Neoplasm; parameters: dose 30 mg/kg, route oral; conditions: in vivo

Dual specificity mitogen-activated protein kinase kinase 1, sequence (Q02750 whole entry): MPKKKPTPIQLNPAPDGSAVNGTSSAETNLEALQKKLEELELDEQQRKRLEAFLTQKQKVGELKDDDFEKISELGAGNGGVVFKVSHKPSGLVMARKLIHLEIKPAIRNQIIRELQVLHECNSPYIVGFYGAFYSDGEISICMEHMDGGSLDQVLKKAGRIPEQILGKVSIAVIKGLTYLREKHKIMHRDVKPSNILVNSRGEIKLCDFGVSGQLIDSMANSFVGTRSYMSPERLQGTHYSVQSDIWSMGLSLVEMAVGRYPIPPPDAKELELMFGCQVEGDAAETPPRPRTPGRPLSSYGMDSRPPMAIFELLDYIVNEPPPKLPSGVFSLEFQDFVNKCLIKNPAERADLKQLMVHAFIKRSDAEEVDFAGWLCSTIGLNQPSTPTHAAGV

Row | Structure (SMILES) | IC50 [1] | IC50 [2] | AUCt/dose (Rattus norvegicus) | metabolised at 0.5 h, 15 µM [3] | metabolised at 0.5 h, 15 µM [4] | CL/F [5] | half-life [6] | Papp [7] | bioavailability [8] | Drug metabolism (Brain [9]) | Drug metabolism (Plasma [10]) | Drug metabolism [11] | Drug metabolism (Plasma [12]) | Drug metabolism (Brain [13]) | Drug metabolism [14]
1 | CN(C)CC1(O)CN(C(=O)c2ccc(F)c(F)c2Nc2ccc(I)cc2F)C1 | 5.1 nM | 14 nM | – | – | – | – | – | – | – | – | – | – | – | – | –
2 | CC(C)NCC1(O)CN(C(=O)c2ccc(F)c(F)c2Nc2ccc(I)cc2F)C1 | – | – | 0.25 µM·h/mg/kg | 40.5% | 35.8% | 99.3 mL/min/kg | 4.9 h | 21 ×10⁻⁶ cm/s | 86% | – | – | – | – | – | –
3 | C[C@@H](N)C1(O)CN(C(=O)c2ccc(F)c(F)c2Nc2ccc(I)cc2F)C1 | 16 nM | 164 nM | – | – | – | – | – | – | – | – | – | – | – | – | –
4 | C[C@H](N)C1(O)CN(C(=O)c2ccc(F)c(F)c2Nc2ccc(I)cc2F)C1 | 5.2 nM | 46 nM | 1.03 µM·h/mg/kg | -4.5% | 2.6% | 13.3 mL/min/kg | 11.4 h | 9.9 ×10⁻⁶ cm/s | 58% | – | – | – | – | – | –

The next lines start with the values.

Row | IC50 [1] | IC50 [2] | AUCt/dose (Rattus norvegicus) | metabolised at 0.5 h, 15 µM [3] | metabolised at 0.5 h, 15 µM [4] | CL/F [5] | half-life [6] | Papp [7] | bioavailability [8] | Drug metabolism (Brain [9]) | Drug metabolism (Plasma [10]) | Drug metabolism [11] | Drug metabolism (Plasma [12]) | Drug metabolism (Brain [13]) | Drug metabolism [14] | Structure (SMILES)
5 | 19.5 nM | 102 nM | – | – | – | – | – | – | – | < 0.005 µM | 0.21 µM | < 0.005 µM | 0.01 µM | < 0.005 µM | < 0.005 µM | O=C(O)c1ccc(F)c(F)c1Nc1ccc(I)cc1F
6 | 220 nM | 81 nM | – | – | – | – | – | – | – | – | – | – | – | – | – | NC(=O)C1(O)CN(C(=O)c2ccc(F)c(F)c2Nc2ccc(I)cc2F)C1
7 | – | – | 0.85 µM·h/mg/kg | 31.5% | 46.3% | 35 mL/min/kg | 5.4 h | 20.7 ×10⁻⁶ cm/s | 101% | – | – | – | – | – | – | CCNCC1(O)CN(C(=O)c2ccc(F)c(F)c2Nc2ccc(I)cc2F)C1
